Laboratory results published in patent publication EP0550006B1, “Use of N-acyl derivatives of aminoalcohols for the manufacture of a medicament for the treatment of pathologies involving mast cells” (LIFEGROUP S.p.A., priority 1991, dated 1993).
No end group written: not given here.

Tests used:
water solubility = conditions: for solubility: water; for water solubility: result in words
mast cells [1] = assay: in vivo mast cell degranulation induced by substance P, general subcutaneous administration; design: species or system Sprague Dawley rats; conditions: rat; compound 20 mg/kg subcutaneous, 30 minutes before substance P 10^-6 M s.c. in the auricular pinna; average of 500-800 cells; solvent group 12
Method: In this case 2-weeks old rats (Sprague Dawley, Charles River) were firstly subcutaneously treated with 20 mg/kg of the substances under question and after 30 minutes were exposed to the degranulation stimulus by s.c. administration of substance P (10^-6 M) in the auricular pinna. Then the rats were sacrificed and the ear pinna removed for histological assessment of mast cell degranulation by counting the number of degranulated mast cells.
The biological parameter of evaluation was the percentage of degranulated mast cells.
In Tab. 2 the obtained results are reported on an average of 500-800 cells.

[2] = organic solvent solubility; conditions: for solubility: organic solvent or mixture
[3] = tested on: Peritoneal mast cells of rat; assay: in vitro mast cell degranulation induced by substance P; type: cell-based; conditions: compound 10^-5 M, 30 minutes incubation, then substance P 10^-4M
Method: Peritoneal mast cells of rat were taken according to the standard methodology described by Lagunoff (1975, Tech. Biochem. Biophys. Morphol., 2, pp. 289-305).
The cells were then cultured in MEM which 10% fetal calf serum was added to and then incubated in a Haereus^R incubator for 30 minutes.
The derivatives under question at the concentration of 10^-5 M were added to the incubation medium.
At the end of the incubation, the physiological degranulation stimulus represented also in the case by the substance P (10^-4M) was added.
The cells were then centrifugated in order to remove the supernatant formed by the incubation medium and were placed onto a slide after coloration with toluidine blue, for the analysis of the morphological aspect at the optical microscope.
Also under these conditions the parameter to be considered was the percentage of degranulated cells after stimulation with the Substance P.

inflammatory response [4] = conditions: substance extracted from yolk egg, administered to man; Coburn et al 1960; cited from earlier work
[5] = tested on: human rheumatoid arthritis; conditions: Perlik et al. 1974; cited from earlier work
inflammatory response [6] = conditions: tested animal; prior art; cited from earlier work
mast cells [7] = assay: in vivo mast cell degranulation induced by substance P, intradermal (topical) application on the auricular pinna; design: species or system Sprague Dawley rats; conditions: for % of degranulated mast cells: rat auricular pinna, compound 0.5 mg/kg intradermal, 10 minutes before substance P 10^-4 M intradermal, sacrifice after 30', solvent group 8
Method: After 10 minutes a local administration of substance P ( 10^-4 M), able to induce a mast cells degranulation response, was carried out still by intradermal route. […] The inhibition degree in mast cells degranulation in the tissues of the animals treated with the compounds under question. in comparison with that of animals treated only with the physiological degranulation factor (substance P) was considered as a parameter for the biological activity.

physchem = conditions: organic solvent or mixture

Row | Molecule | solubility (water solubility) [µg/mL] | % of degranulated mast cells (mast cells [1]) [%] | solubility ([2]; ethanol) [µg/mL] | water solubility (water solubility) | solubility ([2]; dmso) [µg/mL] | further results
1 | O=C(CCCCC1CCSS1)NCCO (racemic) [Example 15, N-(2-hydroxyethy)-DL-α-lipoamide] | > 10000 | 40 | > 10000 |  |  | 
2 | CCCCCCCCCCCCCCCC(=O)NCCO [Example 1, N-palmitoylethanolamide] |  | 65 |  | insoluble |  | % of degranulated mast cells [3]: 52%; therapeutic effect (inflammatory response [4]): not significant; solubility in organic solvents ([2]; solvents in which soluble, in words): hot methanol, CHCl3, DMSO; therapeutic efficacy [5]: beneficial effects were not so remarkable; inhibition of the inflammatory response (inflammatory response [6]): generic activity in inhibiting the inflammatory response; % of degranulated mast cells (mast cells [7]): 50%
3 | CCCCCCCCCCCCCCCC(=O)N(CCO)CCO [Example 2, N,N-bis(2-hydroxyethyl)-palmitamide] |  | 48 |  | poorly soluble | > 10000 | % of degranulated mast cells [3]: 30%; % of degranulated mast cells (mast cells [7]): 35%
4 | CCCCCCCCCCCCCCCC(=O)NCC(C)O (stereo not drawn) [Example 3, N-(2-hydroxypropyl)-palmitamide] |  | 49.5 |  | poorly soluble | > 3000 | solubility ([2]; n-octanol): > 10000 µg/mL
5 | CCCCCCCCCCCCCCCCCC(=O)NCCO [Example 4, N-(2-hydroxyethyl)-stearoylamide] |  | 60 |  |  |  | solubility (physchem; chloroform): > 5000 µg/mL
6 | CCCCCCCCCCCC(=O)NCCO [Example 5, N-(2-hydroxyethyl)-lauroylamide] |  | 54 |  | poorly soluble | > 10000 | solubility ([2]; chloroform): > 10000 µg/mL
7 | CCCCCCCCCCCC(=O)N(CCO)CCO [Example 6, N,N-bis(2-hydroxyethyl)-lauroylamide] |  | 28 |  | poorly soluble | > 10000 | solubility ([2]; chloroform): > 10000 µg/mL
8 | O=C(CCCO)NCCO [Example 7, N-(2-hydroxyethyl)-4-hydroxybutirramide] | > 10000 |  | > 10000 |  | > 10000 | 
9 | O=C(NCCO)c1ccccc1 [Example 8, N-(2-hydroxyethyl)-benzoylamide] | > 10000 | 48.8 | > 10000 |  | > 10000 | 
10 | O=C(c1ccccc1)N(CCO)CCO [Example 9, N,N -bis-(2-hydroxyethyl)-benzoylamide] | > 10000 | 36.8 | > 10000 |  | > 10000 | 
11 | CCCCCCCC/C=C\CCCCCCCC(=O)N(CCO)CCO [Example 10, N,N -bis-(2-hydroxyethyl)-oleoylamide] |  | 44 |  | poorly soluble | > 10000 | solubility ([2]; chloroform): > 10000 µg/mL
12 | CCCCC/C=C\C/C=C\CCCCCCCC(=O)N(CCO)CCO [Example 11, N,N -bis-(2-hydroxyethyl)-linoleoylamide] |  | 71 | > 10000 | poorly soluble |  | solubility ([2]; chloroform): > 10000 µg/mL
13 | C[C@H](CCC(=O)NCCO)[C@H]1CC[C@H]2[C@@H]3CC[C@@H]4C[C@H](O)CC[C@]4(C)[C@H]3C[C@H](O)[C@]12C [Example 12, N-(2-hydroxyethyl)-desoxycholamide] |  |  |  |  |  | solubility (physchem; dmso): > 10000 µg/mL
14 | O=C(NCCO)c1ccccc1O [Example 13, N-(2-hydroxethyl)-salicylamide] |  | 38 |  |  |  | 
15 | O=C(NCCO)c1ccncc1 [Example 14, N-(2-hydroxyethyl)-isonicotinamide] | > 10000 |  |  |  |  | solubility ([2]; methanol): > 10000 µg/mL
16 | substance P (RPKPQQFFGLM; ends and bridges not checked; UniProt P20366 58-68, looked up) [reference compound] |  | 92 |  |  |  | % of degranulated mast cells [3]: 96%; % of degranulated mast cells (mast cells [7]): 94%; mast cells degranulation (morphological analysis) (mast cells [7]; rat pinna, intradermal, result in words): induced a degranulation in the majority of mast cells
